Test results reported in the NIST ThermoML archive (doi:10.1016/j.fluid.2009.11.004).
Numbers after ± are expanded uncertainties.

How the values were obtained:
[1] = refractive index (Na D-line) (dimensionless); conditions: 298.15 K; 101.33 kPa; Liquid; Standard Abbe refractometry
[2] = Liquid, Ebulliometric method (Recirculating still)

Question: For `Cc1ccccc1C` [1,2-dimethylbenzene], which refractive index [1] is on record?
Answer: 1.5028 ± 0.0007

Question: Which refractive index [1] does the source give for `CCCC(C)C` [2-methylpentane] here?
Answer: 1.3685 ± 0.0007

Question: And the “vapor or sublimation pressure” value ([2]; 290.34 K)?
Answer: 20.3 ± 0.4 kPa

Question: And the “vapor or sublimation pressure” value ([2]; 299.7 K)?
Answer: 30.13 ± 0.42 kPa

Question: What about the “vapor or sublimation pressure” value ([2]; 307.12 K) of the same compound?
Answer: 40.39 ± 0.46 kPa

Question: What about the “vapor or sublimation pressure” value ([2]; 312.92 K) of the same compound?
Answer: 50.23 ± 0.5 kPa

Question: And the “vapor or sublimation pressure” value ([2]; 317.93 K)?
Answer: 60.24 ± 0.54 kPa

Question: What about the “vapor or sublimation pressure” value ([2]; 322.26 K) of the same compound?
Answer: 70.13 ± 0.59 kPa

Question: What about the “vapor or sublimation pressure” value ([2]; 326.15 K) of the same compound?
Answer: 80.11 ± 0.64 kPa

Question: And the “vapor or sublimation pressure” value ([2]; 329.74 K)?
Answer: 90.32 ± 0.69 kPa

Question: What about the “vapor or sublimation pressure” value ([2]; 333.37 K) of the same compound?
Answer: 101.76 ± 0.72 kPa

Question: For `Cc1ccsc1` [3-methylthiophene], which refractive index [1] is on record?
Answer: 1.5172 ± 0.0007

Question: Which refractive index [1] does the source give for `CCCCCC` [hexane] here?
Answer: 1.3724 ± 0.0007

Question: Which “vapor or sublimation pressure” value ([2]; 325.39 K) does the source give for `CC1CCCCC1` [methylcyclohexane] here?
Answer: 20.25 ± 0.39 kPa

Question: What about the “vapor or sublimation pressure” value ([2]; 336.27 K) of the same compound?
Answer: 30.47 ± 0.4 kPa

Question: What about the “vapor or sublimation pressure” value ([2]; 344.1 K) of the same compound?
Answer: 40.07 ± 0.43 kPa

Question: What about the “vapor or sublimation pressure” value ([2]; 350.71 K) of the same compound?
Answer: 49.96 ± 0.47 kPa

Question: What about the “vapor or sublimation pressure” value ([2]; 356.44 K) of the same compound?
Answer: 60.05 ± 0.51 kPa

Question: And the “vapor or sublimation pressure” value ([2]; 361.45 K)?
Answer: 70.17 ± 0.55 kPa

Question: And the “vapor or sublimation pressure” value ([2]; 365.75 K)?
Answer: 79.96 ± 0.59 kPa

Question: What about the “vapor or sublimation pressure” value ([2]; 369.98 K) of the same compound?
Answer: 90.64 ± 0.63 kPa

Question: What about the “vapor or sublimation pressure” value ([2]; 373.9 K) of the same compound?
Answer: 101.6 ± 0.65 kPa

Question: Which refractive index [1] does the source give for `CC1CCCC1` [methylcyclopentane] here?
Answer: 1.4067 ± 0.0007

Question: And the “vapor or sublimation pressure” value ([2]; 300.4 K)?
Answer: 20.25 ± 0.4 kPa

Question: What about the “vapor or sublimation pressure” value ([2]; 310.16 K) of the same compound?
Answer: 30.18 ± 0.41 kPa

Question: What about the “vapor or sublimation pressure” value ([2]; 317.69 K) of the same compound?
Answer: 40.24 ± 0.45 kPa

Question: What about the “vapor or sublimation pressure” value ([2]; 323.75 K) of the same compound?
Answer: 50.16 ± 0.49 kPa

Question: What about the “vapor or sublimation pressure” value ([2]; 328.97 K) of the same compound?
Answer: 60.22 ± 0.53 kPa

Question: And the “vapor or sublimation pressure” value ([2]; 333.37 K)?
Answer: 69.94 ± 0.58 kPa

Question: What about the “vapor or sublimation pressure” value ([2]; 337.5 K) of the same compound?
Answer: 80.18 ± 0.62 kPa

Question: What about the “vapor or sublimation pressure” value ([2]; 341.25 K) of the same compound?
Answer: 90.53 ± 0.68 kPa

Question: What about the “vapor or sublimation pressure” value ([2]; 345.1 K) of the same compound?
Answer: 102.31 ± 0.7 kPa
